Several values for one entry are separate records, joined by “and”; a condition that tells them apart may be missing. Identical values can stand only once.
What was measured:
[1] = test system: 1-octen-3-ol receptors OR2W1, Olfr93, Olfr120, Olfr398; assay: Antagonists of 1-octen-3-ol receptors (Example 11); assay type: cell-based, mouse and human; set-up: Inhibition(%): concentration or dose not given beside the values; settings: Table 19
[2] = test system: geonol earthy/moss odor perception; assay: Human sensory performance of test compounds with and without geonol; assay type: in vivo; settings: for % Earthy/Moss Odor: Test Compound Only
Text: Sensory Evaluation: Five 16 oz glass jars containing either REF (geonol only), geonol only control, antagonist only, mixture of geonol and isointense antagonist, or mixture of geonol and low intensity antagonist were presented to the panelists (last four samples were randomized across panelists). The panelists were asked to familiarize themselves with the earthy/moss odor quality from the REF jar first, then rate the pleasantness, earthy/moss odor intensity and overall odor intensity of the next four samples on a 0-10 linear scale. The inter-stimulus interval between the samples was two minutes to avoid adaptation. […]
The results are shown in Tables 16 and 17, and FIGS. 3 to 5.

[3] = test system: geonol receptors Olfr339, Olfr1487, Olfr1A1, OR11A1, Olfr96; assay: Antagonists of geonol receptors (Example 11); assay type: cell-based, mouse and human; set-up: Inhibition(%): concentration or dose not given beside the values; settings: Table 18
[4] = test system: OR2W1 or the OR1A1 olfactory receptor; assay: 1-octen-3-ol olfactory receptor antagonist cell-based dose-response vs 1-octen-3-ol EC80; settings: for IC50: 1-octen-3-ol at EC80; for % Inhibition: maximum inhibition normalized to baseline agonist activity
Text: Each cell line was screened with a volatile compound library for their inhibitory properties and potential 1-octen-3-ol smell inhibition.
Single concentration monitoring of the 1-octen-3-ol induced cell activity in the presence or absence of a test compound allowed for the identification of compounds with a putative suppression or inhibitory effect.

[5] = target: T1, OR51E1 olfactory receptor (Homo sapiens, UniProt Q8TCB6); assay: Butyric acid olfactory receptor antagonist cell-based dose-response vs butyric acid EC80; settings: butyric acid at EC80; Table 5
T1 construct: expressed in transfected cells
T1 sequence (Q8TCB6 1-318): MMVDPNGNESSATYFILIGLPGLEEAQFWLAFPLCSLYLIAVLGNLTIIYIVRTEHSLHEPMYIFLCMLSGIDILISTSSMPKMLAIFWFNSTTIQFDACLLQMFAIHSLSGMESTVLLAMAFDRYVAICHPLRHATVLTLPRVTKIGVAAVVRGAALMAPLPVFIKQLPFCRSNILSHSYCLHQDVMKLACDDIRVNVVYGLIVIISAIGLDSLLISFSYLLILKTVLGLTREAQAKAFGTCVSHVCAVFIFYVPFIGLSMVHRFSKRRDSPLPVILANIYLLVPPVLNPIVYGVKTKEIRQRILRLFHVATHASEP

[6] = Low Dilution Test Compound + Geonol (0.1%)
[7] = Medium Dilution Test Compound + Geonol (0.1%)

CCC(O)COC1CCCCC1C(C)(C)C (centres unmarked)
IC50 [1]: 53.6 µM | Inhibition(%) [1]: 13%

CC(=O)c1c(C)c([N+](=O)[O-])c(C(C)(C)C)c([N+](=O)[O-])c1C
IC50 [1]: 84.7 µM | Inhibition(%) [1]: 98%

CCC(=CC[C@@H]1CC=C(C)C1(C)C)CO
% Earthy/Moss Odor Remaining [2, 6]: 85.20% | % Earthy/Moss Odor Remaining [2, 7]: 64.30% | % Earthy/Moss Odor [2]: 34.90%

CC1CCC2C(C)(C)C3CC12CC1OC13C (centres unmarked)
IC50 [1]: 85.6 µM | Inhibition(%) [1]: 91%

CC1COCc2cc3c(cc21)C(C)(C)C(C)C3(C)C (centres unmarked)
IC50 [1]: 65.2 µM | Inhibition(%) [1]: 84% | IC50 [3]: 894 µM | Inhibition(%) [3]: 56%

C=C1CC[C@H]2O[C@]2(C)CC[C@@H]2[C@@H]1CC2(C)C
IC50 [4]: 25.1 µM | % Inhibition [4]: 123.63% | IC50 [5]: 97 µM

CC1=C[C@@H](C)[C@@H](C=O)CC1
% Earthy/Moss Odor Remaining [2, 6]: 80.60% | % Earthy/Moss Odor Remaining [2, 7]: 71.50% | % Earthy/Moss Odor [2]: 48.10%

CC1C2CC(CC13C=CC(=O)CC3)C2(C)C (centres unmarked)
IC50 [1]: 12.5 µM | Inhibition(%) [1]: 87% | IC50 [3]: 42.4 µM | Inhibition(%) [3]: 27%

C[C@@H]1CC[C@]2(O)C(C)(C)[C@H]3CC[C@@]2(C)[C@@H]1C3
% Earthy/Moss Odor Remaining [2, 6]: 104.60% | % Earthy/Moss Odor Remaining [2, 7]: 129.80% | % Earthy/Moss Odor [2]: 94.10%

CC1CCC2(O)C(C)(C)C3CCC2(C)C1C3 (centres unmarked)
IC50 [1]: 81 µM | Inhibition(%) [1]: 70% | IC50 [3]: 34.9 µM | Inhibition(%) [3]: 68%

CC(=O)OC1(C)CCC23CC1C(C)(C)C2CCC3C (centres unmarked)
IC50 [1]: 72.6 µM | Inhibition(%) [1]: 52%

C=C(C[C@H](C)CO)[C@H]1CC=C(C)C1(C)C
IC50 [1]: 54.6 µM | Inhibition(%) [1]: 27% | IC50 [3]: 36.6 µM | Inhibition(%) [3]: 33%

CC1(C)CCCC2(C)C1CCC1(C)OCCC12 (centres unmarked)
IC50 [1]: 101 µM | Inhibition(%) [1]: 105% | IC50 [3]: 27.1 µM | Inhibition(%) [3]: 78%

Cc1cc2c(cc1C=O)C(C)(C)[C@H](C)[C@@H](C)C2(C)C
IC50 [1]: 83.7 µM | Inhibition(%) [1]: 64%

CC(=O)O[C@H]1CCCC[C@@H]1C(C)(C)C
% Earthy/Moss Odor [2]: 15.30% | IC50 [3]: 164 µM | Inhibition(%) [3]: 56%

CC(=O)O[C@@H]1C(C)(C)CCC[C@@]12CC=C(C)C[C@@H]2C
IC50 [5]: 37.7 µM | IC50 [3]: 267 µM | Inhibition(%) [3]: 38%

1-(2,2-dimethyl-6-methylidenecyclohexyl)pent-1-en-3-one; 3-methyl-4-(2,6,6-trimethylcyclohex-2-en-1-yl)but-3-en-2-one; 1-(2,6,6-trimethylcyclohexen-1-yl)pent-1-en-3-one; 1-(2,6,6-trimethylcyclohex-2-en-1-yl)pent-1-en-3-one
IC50 [1]: 66.8 µM | Inhibition(%) [1]: 56% | IC50 [3]: 136 µM | Inhibition(%) [3]: 49%

1-(2,6,6-trimethylcyclohexen-1-yl)hepta-1,6-dien-3-one; 1-(2,6,6-trimethylcyclohex-2-en-1-yl)hepta-1,6-dien-3-one
IC50 [1]: 35.9 µM | Inhibition(%) [1]: 49% | IC50 [5]: 100 µM | IC50 [3]: 49.1 µM | Inhibition(%) [3]: 66%

3-acetyloxynonyl acetate; (3-pentyloxan-4-yl) acetate
% Earthy/Moss Odor Remaining [2, 6]: 81.10% | % Earthy/Moss Odor Remaining [2, 7]: 62.50% | % Earthy/Moss Odor [2]: 26.20% | IC50 [3]: 295 µM | Inhibition(%) [3]: 20%

CC(=O)/C=C/C1C(C)=CCCC1(C)C (racemic) [(+−)-(3E)-4-(2,6,6-trimethyl-2-cyclohexen-1-yl)-3-buten-2-one]
IC50 [1]: 462 µM | Inhibition(%) [1]: 79%

CC1(C)C2C[C@H]3CCC(=O)C=C3[C@@H]1C2 (single isomer, unassigned; (+))
IC50 [4]: 194 µM | % Inhibition [4]: 128.51%

O=C1CCCCCCCCCCCC(=O)OCCO1 [1,4-dioxacycloheptadecane-5,17-dione]
IC50 [1]: 39.3 µM | Inhibition(%) [1]: 38% | IC50 [3]: 31.7 µM | Inhibition(%) [3]: 21%

CC=CC(=O)C1=C(C)CCCC1(C)C [1-(2,6,6-trimethylcyclohexen-1-yl)but-2-en-1-one]
IC50 [1]: 477 µM | Inhibition(%) [1]: 72%

CC(CCCC(C)(C)O)CC(O)n1ccc2ccccc21 (centres unmarked) [1-indol-1-yl-3,7-dimethyloctane-1,7-diol]
IC50 [1]: 175 µM | Inhibition(%) [1]: 46% | IC50 [3]: 201 µM | Inhibition(%) [3]: 46%

CC1C(=O)c2ccccc2C1(C)C (centres unmarked) [2,3,3-trimethyl-2H-inden-1-one]
IC50 [4]: 75.6 µM | % Inhibition [4]: 128.39%

c1ccc(CCCc2ccccn2)cc1 [2-(3-phenylpropyl)pyridine]
IC50 [1]: 153 µM | Inhibition(%) [1]: 31% | IC50 [3]: 41 µM | Inhibition(%) [3]: 196%

C=CC(C)(CCC=C(C)C)OC(=O)C(C)C (centres unmarked) [3,7-dimethylocta-1,6-dien-3-yl 2-methylpropanoate]
IC50 [1]: 57.1 µM | Inhibition(%) [1]: 88%

CC(C)=CCCC(C)=CCO [3,7-dimethylocta-2,6-dien-1-ol]
IC50 [1]: 190 µM | Inhibition(%) [1]: 18%

CC(C)(C)Cc1cccnc1 [3-(2,2-dimethylpropyl)pyridine]
IC50 [1]: 117 µM | Inhibition(%) [1]: 25%

CC(=O)C(C)=CC1C(C)=CCCC1(C)C (centres unmarked) [3-methyl-4-(2,6,6-trimethylcyclohex-2-en-1-yl)but-3-en-2-one]
IC50 [1]: 120 µM | Inhibition(%) [1]: 37% | IC50 [3]: 110 µM | Inhibition(%) [3]: 58%

CC1=CCC(CCC(C)C(C)O)C1(C)C (centres unmarked) [3-methyl-5-(2,2,3-trimethylcyclopent-3-en-1-yl)pentan-2-ol]
IC50 [3]: 28.8 µM | Inhibition(%) [3]: 32%

CC(CCO)CCc1ccccc1 (centres unmarked) [3-methyl-5-phenylpentan-1-ol]
IC50 [3]: 1100 µM | Inhibition(%) [3]: 37%

CC(=O)C=CC1=C(C)CCC(C)C1(C)C (centres unmarked) [4-(2,5,6,6-tetramethylcyclohexen-1-yl)but-3-en-2-one]
IC50 [1]: 72.7 µM | Inhibition(%) [1]: 23%

CC(=O)CCC1=C(C)CCCC1(C)C [4-(2,6,6-trimethylcyclohexen-1-yl)butan-2-one]
IC50 [1]: 149 µM | Inhibition(%) [1]: 40% | % Earthy/Moss Odor [2]: 30.30% | IC50 [3]: 118 µM | Inhibition(%) [3]: 36%

CC(C)CC(O)Cc1ccccc1 (centres unmarked) [4-methyl-1-phenylpentan-2-ol]
IC50 [3]: 517 µM | Inhibition(%) [3]: 36%

CCCCCCCC1CCCC(=O)O1 (centres unmarked) [6-heptyloxan-2-one]
IC50 [3]: 197 µM | Inhibition(%) [3]: 29%

CCCCC[C@H]1CCC[C@H]1O [(1~{R},2~{S})-2-pentylcyclopentan-1-ol]
IC50 [3]: 195 µM and 147 µM

CC(=O)OC(C)(C)Cc1ccccc1 [(2-methyl-1-phenylpropan-2-yl) acetate]
% Earthy/Moss Odor [2]: 34.00% | IC50 [3]: 386 µM | Inhibition(%) [3]: 54%

C[C@@H]1CC=CCCCCCCCCCC(=O)C1 [(3~{R})-3-methylcyclopentadec-5-en-1-one]
IC50 [1]: 23.4 µM | Inhibition(%) [1]: 79% | IC50 [5]: 53.7 µM

CC(=O)OC1CCC(C(C)(C)C)CC1 (centres unmarked) [(4-{tert}-butylcyclohexyl) acetate]
IC50 [1]: 93.8 µM | Inhibition(%) [1]: 79%

O=C1CCCCCCC/C=C/CCCCCCC1 [(9<I>E</I>)-cycloheptadec-9-en-1-one]
IC50 [4]: 210 µM | % Inhibition [4]: 97.22%

O=C1CCCCCCCCCCC1 [Clyclododecanone, cyclododecanone]
IC50 [4]: 8.79 µM | % Inhibition [4]: 118.47%

CC(CCO)CCc1ccccc1 (centres unmarked) [Compound 3-methyl-5-phenylpentan-1-ol, 3-methyl-5-phenylpentan-1-ol]
% Earthy/Moss Odor [2]: 11.30%

O=C1CCC=CCCCCCCCCCC1 [Cyclopentadec-4-en-1-one]
IC50 [4]: 156 µM | % Inhibition [4]: 90.98%

O=C1CCCCCCCCCCCCCCO1 [OXACYCLOHEXADECAN-2-ONE]
IC50 [4]: 32.1 µM | % Inhibition [4]: 111.31%

CCCCCO [Pentanol, 1-, pentanol]
IC50 [4]: 28.3 µM | % Inhibition [4]: 94.31%

CC(C)CC(=O)OCc1ccccc1 [benzyl 3-methylbutanoate]
IC50 [3]: 220 µM | Inhibition(%) [3]: 41%

CCCCCCCC=CC=O [dec-2-enal]
IC50 [3]: 262 µM | Inhibition(%) [3]: 40%

CCOC(=O)c1ccccc1C(=O)OCC [diethyl benzene-1,2-dicarboxylate]
IC50 [3]: 1580 µM | Inhibition(%) [3]: 32%

COC(=O)c1ccccc1NC=CC(C)CCCC(C)(C)O (centres unmarked) [methyl 2-[(7-hydroxy-3,7-dimethyloct-1-enyl)amino]benzoate]
IC50 [3]: 213 µM | Inhibition(%) [3]: 103%

COC(=O)CCCCCCCC/C=C/C=O [methyl (10E)-12-oxo-10-dodecenoate]
Inhibition(%) [3]: 86%

OCCc1ccccc1 [phenylethylol, 2-PHENYLETHANOL]
% Earthy/Moss Odor [2]: 47.50%

— US20230233425A1, “USE OF VOLATILE COMPOSITIONS TO LIMIT OR ELIMINATE THE PERCEPTION OF MALODOR” (Firmenich SA, priority 2017, published 2023)
